IC50 data for 28 compounds are collected here from US12247010B2, “Tubulin inhibitors” (LIN BIOSCIENCE PTY LTD., priority 2017, dated 2025).

The assay concerns U87MG cells. Put plainly: Cytotoxicity assay (cell viability, CellTiter 96 Aqueous MTS). The assay is classed as cell-based. The settings on record: Homo sapiens, U-87 MG, 72 h, 72 hours incubation, starting concentration 50 uM, 9 point half log dilution, average where tested repeatedly. The essentials:
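U87MG cells plated at 7×10^3 cells/well overnight, then treated 72 h with 9-point half-log dilutions from a 50 uM starting concentration. Viability measured with CellTiter 96 Aqueous MTS; IC50 calculated from viability.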

Structures are written as SMILES. pIC50: −log10 of the molar value. Some results are limits rather than exact numbers.

For orientation: pIC50 means the negative decadic logarithm of the IC50, by convention in mol/L. Lower therefore signals a high IC50.

As for `O=C(Cc1ccc(F)cc1)NCCCc1ccc(-c2ccccc2F)cc1` [Compound 284, N-(3-(2′-fluoro-[1,1′-biphenyl]-4-yl)propyl)-2-(4-fluorophenyl)acetamide], the pIC50 was more than 6.30.
To `Cc1oncc1C(=O)NCCCc1ccc(-c2ccccc2F)cc1` [Compound 285, N-(3-(2′-fluoro-[1,1′-biphenyl]-4-yl)propyl)-5-methylisoxazole-4-carboxamide] belongs less than 5.30; to `Cc1cc2ncc(C(=O)NCCCc3ccc(-c4ccccc4F)cc3)cn2n1` [Compound 286, N-(3-(2′-fluoro-[1,1′-biphenyl]-4-yl)propyl)-2-methylpyrazolo[1,5-a]pyrimidine-6-carboxamide], more than 6.30.
Under `Cc1ncoc1C(=O)NCCCc1ccc(-c2ccccc2F)cc1` [Compound 290, N-(3-(2′-fluoro-[1,1′-biphenyl]-4-yl)propyl)-4-methyloxazole-5-carboxamide] stands less than 5.30; under `COc1ncccc1C(=O)NCCCc1ccc(-c2ccccc2F)cc1` [Compound 292, N-(3-(2′-fluoro-[1,1′-biphenyl]-4-yl)propyl)-2-methoxynicotinamide], less than 5.30; under `O=C(Cc1ccc2c(c1)OCCO2)NCCCc1ccc(-c2ccccc2F)cc1` [Compound 293, 2-(2,3-dihydrobenzo[b][1,4]dioxin-6-yl)-N-(3-(2′-fluoro-[1,1′-biphenyl]-4-yl)propyl)acetamide], less than 5.30.
To `Cn1ccc2cc(-c3ccc(CCCC(=O)Nc4cccnc4)cc3)cnc21` [Compound 294, 4-(4-(1-methyl-1H-pyrrolo[2,3-b]pyridin-5-yl)phenyl)-N-(pyridin-3-yl)butanamide] belongs 6.00 to 6.30; to `O=C(CCCc1ccc(-c2c[nH]c3ncccc23)cc1)Nc1cccnc1` [Compound 295, 4-(4-(1H-pyrrolo[2,3-b]pyridin-3-yl)phenyl)-N-(pyridin-3-yl)butanamide], 5.30 to 6.00.
Consider `Cn1cnc2cc(-c3ccc(CCCC(=O)Nc4cccnc4)cc3)ccc21` [Compound 296, 4-(4-(1-methyl-1H-benzo [d]imidazol-5-yl)phenyl)-N-(pyridin-3-yl)butanamide], for which the pIC50 is more than 6.30.
To `Cc1nc2cc(-c3ccc(CCCC(=O)Nc4cccnc4)cc3)ccc2n1C` [Compound 297, 4-(4-(1,2-dimethyl-1H-benzo[d]imidazol-5-yl)phenyl)-N-(pyridin-3-yl)butanamide] belongs more than 6.30; to `Cn1cnc2ccc(-c3ccc(CCCC(=O)Nc4cccnc4)cc3)cc2c1=O` [Compound 299, 4-(4-(3-methyl-4-oxo-3,4-dihydroquinazolin-6-yl)phenyl)-N-(pyridin-3-yl)butanamide], less than 5.30.
To `Cc1cc(-c2ccc(CCCC(=O)Nc3cccnc3)cc2)cc2cn[nH]c12` [Compound 301, 4-(4-(7-methyl-1H-indazol-5-yl)phenyl)-N-(pyridin-3-yl)butanamide] belongs more than 6.30.
To `Cc1cc2[nH]ncc2cc1-c1ccc(CCCC(=O)Nc2cccnc2)cc1` [Compound 302, 4-(4-(6-methyl-1H-indazol-5-yl)phenyl)-N-(pyridin-3-yl)butanamide] belongs 5.30 to 6.00.
With `Cc1ccc(C(=O)NCC2(Cc3ccc(-c4ccc5c(cnn5C)c4)cc3)CC2)cn1` [Compound 303, 6-methyl-N-((1-(4-(1-methyl-1H-indazol-5-yl)benzyl)cyclopropyl)methyl) nicotinamide], the pIC50 was less than 5.30.
To `COc1cccc(-c2ccc(CCCNC(=O)c3cnc(C)s3)cc2)c1F` [Compound 304, N-(3-(2′-fluoro-3′-methoxy-[1,1′-biphenyl]-4-yl)propyl)-2-methylthiazole-5-carboxamide] belongs more than 6.30.
Turning to `Cc1ncc(C(=O)NCCCc2ccc(-c3ccc4c(cnn4C)c3)cc2)s1` [Compound 305, 2-methyl-N-(3-(4-(1-methyl-1H-indazol-5-yl)phenyl)propyl)thiazole-5-carboxamide], the pIC50 is more than 6.30.
Under `O=C(NCCCc1ccc(-c2ccc3ncccc3c2)cc1)c1cncnc1` [Compound 306, N-(3-(4-(quinolin-6-yl)phenyl)propyl)pyrimidine-5-carboxamide] stands more than 6.30; under `O=C(NCCCc1ccc(-c2cnc3[nH]ccc3c2)cc1)c1cncnc1` [Compound 307, N-(3-(4-(1H-pyrrolo [2,3-b]pyridin-5-yl)phenyl)propyl)pyrimidine-5-carboxamide], more than 6.30; under `Cc1ncc(C(=O)NCCCc2ccc(-c3ccc4[nH]ncc4c3C)cc2)s1` [Compound 308, 2-methyl-N-(3-(4-(4-methyl-1H-indazol-5-yl)phenyl)propyl)thiazole-5-carboxamide], more than 6.30.
Under `Cc1ncc(C(=O)NCCCc2ccc(-c3cnc4[nH]ccc4c3)cc2)s1` [Compound 309, N-(3-(4-(1H-pyrrolo[2,3-b]pyridin-5-yl)phenyl)propyl)-2-methylthiazole-5-carboxamide] stands more than 6.30.
To `Cc1ncccc1C(=O)NCCCc1ccc(-c2ccc3[nH]ncc3c2C)cc1` [Compound 310, 2-methyl-N-(3-(4-(4-methyl-1H-indazol-5-yl)phenyl)propyl)nicotinamide] belongs more than 6.30; to `Cc1ncccc1C(=O)NCCCc1ccc(-c2cnc3[nH]ccc3c2)cc1` [Compound 311, N-(3-(4-(1H-pyrrolo[2,3-b]pyridin-5-yl)phenyl)propyl)-2-methylnicotinamide], more than 6.30.
For the compound `Cc1ccc(C(=O)NCCCc2ccc(-c3ccc4c(c3)OCC(=O)N4)cc2)cn1` [Compound 312, 6-methyl-N-(3-(4-(3-oxo-3,4-dihydro-2H-benzo[b][1,4]oxazin-7-yl)phenyl)propyl)nicotinamide], the pIC50 was more than 6.30.
Under `Cc1cc(C(=O)NCCCc2ccc(-c3ccc4c(c3)OCC(=O)N4)cc2)n(C)n1` [Compound 313, 1,3-dimethyl-N-(3-(4-(3-oxo-3,4-dihydro-2H-benzo[b][1,4]oxazin-7-yl)phenyl)propyl)-1H-pyrazole-5-carboxamide] stands more than 6.30; under `Cc1ncccc1C(=O)NCCCc1ccc(-c2ccc3c(c2)OCC(=O)N3)cc1` [Compound 314, 2-methyl-N-(3-(4-(3-oxo-3,4-dihydro-2H-benzo[b][1,4]oxazin-7-yl)phenyl)propyl)nicotinamide], more than 6.30.
`Cc1ccc(C(=O)NCCCc2ccc(-c3ccc4[nH]c(=O)ccc4c3)cc2)cn1` [Compound 315, 6-methyl-N-(3-(4-(2-oxo-1,2-dihydroquinolin-6-yl)phenyl)propyl)nicotinamide]: the pIC50 is more than 6.30.
Under `COc1ccc(CC(=O)NCCCc2ccc(-c3cnc4[nH]ccc4c3)cc2)cc1` [Compound 316, N-(3-(4-(1H-pyrrolo[2,3-b]pyridin-5-yl)phenyl)propyl)-2-(4-methoxyphenyl)acetamide] stands more than 6.30; under `COc1cccc(-c2ccc(CCCNC(=O)c3cccnc3C)cc2)c1F` [Compound 317, N-(3-(2′-fluoro-3′-methoxy-[1,1′-biphenyl]-4-yl)propyl)-2-methylnicotinamide], more than 6.30.
